This note sets out measurements from patent US11786471B2, “Complex disintegrant system for oral solid preparation and oral solid preparation comprising said complex disintegrant system” (WUHAN LL SCIENCE AND TECHNOLOGY DEVELOPMENT CO., LTD., priority 2016, dated 2023).

Molecules are shown by their SMILES.

In the first assay the test system is spontaneously hypertensive rats. As to the kind of experiment: Heart rate change in spontaneously hypertensive rats. Format: in vivo, rat. To be noted: SHR, oral administration; result in words. Here is the method:
(§1) 12-week-old spontaneously hypertensive rats (hereinafter referred to as SHR, purchased from Beijing Weitong Lihua Experimental Animal Technology Co., Ltd.) were anesthetized with 2.5% sodium pentobarbital for intraperitoneal injection. After that, the blood pressure sensing catheter of hypertension implant was inserted into their abdominal aorta, while the implant was fixed to the abdominal wall, and then postoperative daily care was performed after suturing. Rats with systolic blood pressure exceeding 160 mm Hg were divided into 3 groups (control group, QR01019 group and QR01019K group) wherein each group has 8 rats. The control group was administrated 0.5% sodium carboxymethylcellulose (hereinafter referred to as CMC-Na); QR01019 group and QR01019K group were respectively administered, both of which were dissolved by 0.5% CMC-Na, by intragastric administration, at a dose of 1 mg/kg (calculated by the effective dose of Azilsartan) and a volume calculated by 4 mL/kg. The systolic blood pressure and heart rate of SHR were compared before and after administration (the systolic blood pressure and heart rate of SHR before administration as reference value), which were detected three times at each time point with the average value recorded.
In the case of `CCOc1nc2cccc(C(=O)OCc3no[n+]([O-])c3C)c2n1Cc1ccc(-c2ccccc2-c2noc(=O)[n-]2)cc1.[K+]` [QR01023K], the “heart rate lowering effect compared with the corresponding unsalted compound” value was “more potent and longer-lasting”.

Turning to `CCOc1nc2cccc(C(=O)OCc3no[n+]([O-])c3C(C)(C)C)c2n1Cc1ccc(-c2ccccc2-c2noc(=O)[n-]2)cc1.[K+]` [QR01026K], the “heart rate lowering effect compared with the corresponding unsalted compound” value was “more potent and longer-lasting”.

With `CCOc1nc2cccc(C(=O)OCOC(=O)OCc3ccno3)c2n1Cc1ccc(-c2ccccc2-c2noc(=O)[n-]2)cc1.[K+]` [QR01030K], the “heart rate lowering effect compared with the corresponding unsalted compound” value is “more potent and longer-lasting”.

On to `CCOc1nc2cccc(C(=O)OCOC(=O)OCc3cn(C)cn3)c2n1Cc1ccc(-c2ccccc2-c2noc(=O)[n-]2)cc1.[K+]` [QR01031K], for which the “heart rate lowering effect compared with the corresponding unsalted compound” value is “more potent and longer-lasting”.

On to `CCOc1nc2cccc(C(=O)OCOC(=O)OCc3ccn(C)c3)c2n1Cc1ccc(-c2ccccc2-c2noc(=O)[n-]2)cc1.[K+]` [QR01032K], for which the “heart rate lowering effect compared with the corresponding unsalted compound” value is “more potent and longer-lasting”.

For `CCOc1nc2cccc(C(=O)OC(C)OC(=O)OCc3ccn(C)c3)c2n1Cc1ccc(-c2ccccc2-c2noc(=O)[n-]2)cc1.[K+]` (stereo not drawn) [QR01033K], the “heart rate lowering effect compared with the corresponding unsalted compound” value was “more potent and longer-lasting”.

`CCOc1nc2cccc(C(=O)OCc3no[n+]([O-])c3CO[N+](=O)[O-])c2n1Cc1ccc(-c2ccccc2-c2noc(=O)[n-]2)cc1.[K+]` [QR01034K]: the “heart rate lowering effect compared with the corresponding unsalted compound” value was “more potent and longer-lasting”.

Take `CCOc1nc2cccc(C(=O)OC3CCc4c3no[n+]4[O-])c2n1Cc1ccc(-c2ccccc2-c2noc(=O)[n-]2)cc1.[K+]` (stereo not drawn) [QR01035K]: the “heart rate lowering effect compared with the corresponding unsalted compound” value is “more potent and longer-lasting”.

In the case of `CCOc1nc2cccc(C(=O)OCc3no[n+]([O-])c3C#N)c2n1Cc1ccc(-c2ccccc2-c2noc(=O)[n-]2)cc1.[K+]` [QR01036K], the “heart rate lowering effect compared with the corresponding unsalted compound” value was “more potent and longer-lasting”.

The test system is the same in the next assay. Description: Antihypertensive efficacy test in spontaneously hypertensive rats: systolic blood pressure change. In kind it is in vivo, rat. The settings on record: SHR, oral administration; result in words. Here is the method: as §1
Turning to `CCOc1nc2cccc(C(=O)OCc3no[n+]([O-])c3C)c2n1Cc1ccc(-c2ccccc2-c2noc(=O)[n-]2)cc1.[K+]` [QR01023K], the “antihypertensive effect compared with the corresponding unsalted compound” value was “more potent and longer-lasting”.

`CCOc1nc2cccc(C(=O)OCc3no[n+]([O-])c3C(C)(C)C)c2n1Cc1ccc(-c2ccccc2-c2noc(=O)[n-]2)cc1.[K+]` [QR01026K]: the “antihypertensive effect compared with the corresponding unsalted compound” value is “more potent and longer-lasting”.

`CCOc1nc2cccc(C(=O)OCOC(=O)OCc3ccno3)c2n1Cc1ccc(-c2ccccc2-c2noc(=O)[n-]2)cc1.[K+]` [QR01030K]: the “antihypertensive effect compared with the corresponding unsalted compound” value was “more potent and longer-lasting”.

As for `CCOc1nc2cccc(C(=O)OCOC(=O)OCc3cn(C)cn3)c2n1Cc1ccc(-c2ccccc2-c2noc(=O)[n-]2)cc1.[K+]` [QR01031K], the “antihypertensive effect compared with the corresponding unsalted compound” value was “more potent and longer-lasting”.

Take `CCOc1nc2cccc(C(=O)OCOC(=O)OCc3ccn(C)c3)c2n1Cc1ccc(-c2ccccc2-c2noc(=O)[n-]2)cc1.[K+]` [QR01032K]: the “antihypertensive effect compared with the corresponding unsalted compound” value was “more potent and longer-lasting”.

For `CCOc1nc2cccc(C(=O)OC(C)OC(=O)OCc3ccn(C)c3)c2n1Cc1ccc(-c2ccccc2-c2noc(=O)[n-]2)cc1.[K+]` (stereo not drawn) [QR01033K], the “antihypertensive effect compared with the corresponding unsalted compound” value is “more potent and longer-lasting”.

Turning to `CCOc1nc2cccc(C(=O)OCc3no[n+]([O-])c3CO[N+](=O)[O-])c2n1Cc1ccc(-c2ccccc2-c2noc(=O)[n-]2)cc1.[K+]` [QR01034K], the “antihypertensive effect compared with the corresponding unsalted compound” value is “more potent and longer-lasting”.

For the compound `CCOc1nc2cccc(C(=O)OC3CCc4c3no[n+]4[O-])c2n1Cc1ccc(-c2ccccc2-c2noc(=O)[n-]2)cc1.[K+]` (stereo not drawn) [QR01035K], the “antihypertensive effect compared with the corresponding unsalted compound” value is “more potent and longer-lasting”.

Take `CCOc1nc2cccc(C(=O)OCc3no[n+]([O-])c3C#N)c2n1Cc1ccc(-c2ccccc2-c2noc(=O)[n-]2)cc1.[K+]` [QR01036K]: the “antihypertensive effect compared with the corresponding unsalted compound” value is “more potent and longer-lasting”.
